Measured values taken from patent US4594347A, “Pyrrolo [3,2,1-ij]-quinoline carboxylic acid compound” (Otsuka Pharmaceutical Co. Limited, priority 1983, dated 1986).

How the values were obtained:
[1] = tested on: Pseudomonas aeruginosa ATCC 10145; assay: Antimicrobial test in vitro (MIC, agar plate dilution method); format: cell-based; parameters: unit not given here; conditions: P. aeruginosa ATCC 10145
Method: (§1) The antimicrobial activities of the following test compounds were tested by measuring the minimum inhibitory concentration (MIC) by an agar plate dilution method [cf. Chemotherapy, 22, 1126-1128 (1974)]. The test microorganisms were used in a concentration of 1×10^8 cells/ml (optical dencity (O.D.) at 660 m: 0.07-0.16) and 1×10^6 cells/ml (dilution: 100 folds).
J: Pseudomonas aeruginosa ATCC 10145

[2] = Measurement of concentration of compounds in blood; format: in vivo; conditions: rat, male rats, oral 25 mg/kg
Method: (§2) The same Test Compound 1 as used in the above Test 1 was orally administered in a dose of 25 mg/kg to three male rats (weighing 190-242 g), and blood and urine were collected from the animals at intervals. The concentration of the test compound in the collected urine and blood was measured by a thin layer plate cup (6 ml medium/.phi.90 mm shall) method wherein Bacillus subtilis ATCC 6633 was used as a test microorganism and a sensitive medium (manufactured by Eiken Kagaku K.K., Japan) was used as a medium. The results are shown in Table 2 (the concentration in urine) and in Table 3 (the concentration in blood), respectively.

[3] = tested on: Streptococcus pyogenes II D S-23; assay: Antimicrobial test in vitro (MIC, agar plate dilution method); format: cell-based; parameters: unit not given here; conditions: S. pyogenes II D S-23
Method: as §1
B: Streptococcus pyogenes II D S-23

[4] = tested on: Klebsiella pneumoniae NCTC 9632; assay: as above; format: cell-based; parameters: unit not given here; conditions: K. pneumoniae NCTC 9632
Method: as §1
E: Klebsiella pneumoniae NCTC 9632

[5] = tested on: Pseudomonas aeruginosa E-2; assay: as above; format: cell-based; parameters: unit not given here; conditions: P. aeruginosa E-2
Method: as §1
K: Pseudomonas aeruginosa E-2

[6] = tested on: Acinetobacter calcoaceticus AC-54; assay: as above; format: cell-based; parameters: unit not given here; conditions: A. calcoaceticus AC-54
Method: as §1
I: Acinetobacter calcoaceticus AC-54

[7] = tested on: Proteus morganii II D Kono; assay: as above; format: cell-based; parameters: unit not given here; conditions: P. morganii II D Kono
Method: as §1
G: Proteus morganii II D Kono

[8] = tested on: Pseudomonas aeruginosa E-2; assay: Therapeutic effects of compounds in urinary infectious diseases in vivo; parameters: species or system JCL:S.D. female rats; conditions: E2, 96 h, female S.D. rats, bladder infection, oral at 6, 24 and 48 hours, urine and kidney colonies after 4 days, Probit method, read-out: 50% effective dose (ED50)
Method: Pseudomonas aeruginosa E-2 was cultured in a nutrient medium at 37° C. for 18 hours and the culture broth thus obtained was diluted with the same medium to prepare a solution of the microorganism (cell concentration: 10^7 cells/ml). To the solution were dipped a UV-sterilized disc [glyceryl monomyristate (manufactured by Nikko Chemicals, Japan) and sodium cetylsulfurate (manufactured by Nikko Chemicals, Japan) in a weight ratio of 9:1; diameter: 2.0 mm, length: 3.0 mm] under ice-cooling for 1.5 hour to give a microorganism-containing disc for inoculation.
The above-prepared disc was surgically inserted into the bladder of JCL:S.D. female rats (one group: four rats) anaesthetized with secobarbital sodium. After the animals have been infected with the microorganism, i.e. 6 hours after the insertion of the disc, 1% oxamide-containing feed and water were administered to the animals. The oxamide-containing feed was changed to a normal feed after 24 hours. Test compounds 1, 7 and 8 as used in Test 1 (in the form of a 0.5% CMC suspension) were each orally administered to the animals in a dose of 16 mg/kg, 8.0 mg/kg, 4.0 mg/kg, 2.0 mg/kg, and 1.0 mg/kg at 6, 24 and 48 hours after the insertion of disc. After 4 days from the infection, urine was collected and further the kidney was taken out from the animals, and then the presence of microorganism was checked as to the collected urine and kidney. That is, 0.1 ml of the urine was applied onto an agar plate medium and cultured at 37° C. for 18 hours, and the number of colonies was counted. Besides, the taken out kidney was divided into two, and the plain section was contacted to an agar plate medium, and the medium was cultured likewise, and the number of colonies was counted, likewise. When the number of colonies was less than 10, it was evaluated as "effective," and when the number of colonies was more than 10, it was evaluated as "ineffective". […]

Escherichia coli No. 29 = assay: Antimicrobial test in vitro (MIC, agar plate dilution method); format: cell-based; parameters: unit not given here; conditions: E. coli No. 29
Method: as §1
D: Escherichia coli No. 29

[9] = tested on: Serratia marcescens IFO 12648; assay: as above; format: cell-based; parameters: unit not given here; conditions: S. marcescens IFO 12648
Method: as §1
H: Serratia marcescens IFO 12648

[10] = Measurement of concentration of compounds in urine; format: in vivo; conditions: male rats, oral 25 mg/kg, 0-24 hours
Method: as §2

Proteus mirabilis 1287 = assay: Antimicrobial test in vitro (MIC, agar plate dilution method); format: cell-based; parameters: unit not given here; conditions: P. mirabilis 1287
Method: as §1
F: Proteus mirabilis 1287

[11] = tested on: Staphylococcus aureus FDA 209P; assay: as above; format: cell-based; parameters: unit not given here; conditions: S. aureus FDA 209P
Method: as §1
A: Staphylococcus aureus FDA 209P

[12] = tested on: Escherichia coli NIHJ JC-2; assay: as above; format: cell-based; parameters: unit not given here; conditions: E. coli NIHJ JC-2
Method: as §1
C: Escherichia coli NIHJ JC-2

minimum inhibitory concentration (MIC) ([1]; 1×10^6 cells/ml): 0.78
minimum inhibitory concentration (MIC) ([1]; 1×10^8 cells/ml): 1.56
concentration at 0.5 h ([2]; 0.5 hour after the administration): 3190 ng/mL
concentration at 1 h ([2]; 1 hour after the administration): 2490 ng/mL
concentration at 2 h ([2]; 2 hours after the administration): 1920 ng/mL
concentration at 4 h ([2]; 4 hours after the administration): 900 ng/mL
concentration at 6 h ([2]; 6 hours after the administration): 600 ng/mL
concentration at 8 h ([2]; 8 hours after the administration): 310 ng/mL
minimum inhibitory concentration (MIC) ([3]; 1×10^6 cells/ml): 3.13
minimum inhibitory concentration (MIC) ([3]; 1×10^8 cells/ml): 3.13
minimum inhibitory concentration (MIC) ([4]; 1×10^6 cells/ml): 0.2
minimum inhibitory concentration (MIC) ([4]; 1×10^8 cells/ml): 0.2
minimum inhibitory concentration (MIC) ([5]; 1×10^6 cells/ml): 0.78
minimum inhibitory concentration (MIC) ([5]; 1×10^8 cells/ml): 1.56
minimum inhibitory concentration (MIC) ([6]; 1×10^6 cells/ml): 0.39
minimum inhibitory concentration (MIC) ([6]; 1×10^8 cells/ml): 0.39
minimum inhibitory concentration (MIC) ([7]; 1×10^6 cells/ml): 0.2
minimum inhibitory concentration (MIC) ([7]; 1×10^8 cells/ml): 0.39
minimum inhibitory concentration (MIC) (Escherichia coli No. 29; 1×10^6 cells/ml): 0.1
minimum inhibitory concentration (MIC) (Escherichia coli No. 29; 1×10^8 cells/ml): 0.1
minimum inhibitory concentration (MIC) ([9]; 1×10^6 cells/ml): 0.2
minimum inhibitory concentration (MIC) ([9]; 1×10^8 cells/ml): 0.2
Recovered amount in urine [10]: 1471.6 µg
dose excreted at 24 h ([10]; rat, urine, read-out: Recovery rate in urine): 27.2%
minimum inhibitory concentration (MIC) (Proteus mirabilis 1287; 1×10^6 cells/ml): 0.39
minimum inhibitory concentration (MIC) (Proteus mirabilis 1287; 1×10^8 cells/ml): 0.78
minimum inhibitory concentration (MIC) ([11]; 1×10^6 cells/ml): 0.2
minimum inhibitory concentration (MIC) ([11]; 1×10^8 cells/ml): 0.39
minimum inhibitory concentration (MIC) ([12]; 1×10^6 cells/ml): 0.05
minimum inhibitory concentration (MIC) ([12]; 1×10^8 cells/ml): 0.1
Compound: CC1Cc2c(N3CCN(C)CC3)c(F)c(N)c3c(=O)c(C(=O)O)cn1c23 (stereo not shown) [Compound 1, 8-fluoro-2-methyl-9-(4-methyl-1-piperazinyl)-7-amino-6-oxo-1,2-dihydro-pyrrolo[3,2,1-ij]quinoline-5-carboxylic acid]
ED50 [8]: 1.53 mg/kg
